Measurements as given in PMC10813298, “Evidence of Guanidines Potential against Leishmania (Viannia) braziliensis: Exploring In Vitro Effectiveness, Toxicities and of Innate Immunity Response Effects” (Biomolecules, 2023).
Entries after “also recorded” stand apart in the source; their conditions may differ. Like-named read-outs stand apart in the source and are kept apart here.

Assays:
[1] = test system: L. (V.) braziliensis intramacrophage amastigotes; test: Treatment of RAW 264.7 macrophages infected with L. (V.) braziliensis (intramacrophage amastigotes); assay type: cell-based, Leishmania (Viannia) braziliensis; settings: RAW 264.7 infected with L. (V.) braziliensis, 72 h of treatment
Description: RAW 264.7 macrophages (1 × 10^6 cells/mL) were seeded in 24-well plates containing sterile glass slides, and approximately 500 μL of supplemented DMEM medium was added. The plates were then incubated at 37 °C with 5% CO2 for 4 h to facilitate cell adhesion. Following the adhesion period, promastigotes (1 × 10^7) in the stationary growth phase were introduced into the wells for infection. The plates were then incubated for an additional 4 h to allow infection to take place. Afterward, the medium was carefully removed, and the wells were washed three times with PBS to eliminate any nonadherent cells. Fresh medium containing serial concentrations of the test substances, ranging from 0.78 to 25 μmol/L, was added to the wells. Additionally, a range of concentrations of glucantime (25 to 800 μmol/L) was included for comparison. The treatment was carried out for 72 h in an incubator at 37 °C with 5% CO2. At the end of the 72 h treatment period, the glass lamina was removed from each well and stained using rapid panoptic stain (Laborklin®, Curitiba, Paraná, Brazil). The stained samples were mounted on permanent slides using Entelan® (Sigma-Aldrich, St. Louis, MO, USA), and antileishmanial activity was assessed by measuring the infection rate and counting the number of amastigotes per macrophage. Quantification was performed using light microscopy at a magnification of 1000×, and a total of 300 macrophages per lamina were evaluated. As a negative control, half DMEM containing 0.2% DMSO was used.

RAW 264.7 macrophages = test: Cytotoxicity against RAW 264.7 macrophages (MTT); assay type: cell-based, murine; settings: RAW 264.7 cells, 72 h
Description: (§1) Murine macrophage cell line RAW 264.7 was used in this study. The cells were cultured in 75 cm^2 cell culture flasks (Corning Glass Workers, New York, NY, USA) using DMEM medium with a pH of 7.2, supplemented with 10% FBS and 1% antibiotic solution (containing 100 U/mL penicillin and 100 μg/mL streptomycin). The cells were maintained in an incubator at a temperature of 37 °C with 5% CO2. The spikes were performed after the cells reached complete confluence, characterized by the formation of a monolayer of cells around 48 h to 72 h after packaging.
(§2) In this study, we utilized the RAW 264.7 macrophages line (obtained from ATCC: code TIB-71™),human embryonic kidney cell line HEK-293 (obtained from ATCC: code CRL-1573™)and two human cancer cell cultures: the colon carcinoma cell line CaCo-2 and the adenocarcinomic human alveolar basal epithelial cell A549 (also obtained from ATCC: codesHTB-37™ and CCL-185™).These cell lines were cultured in Dulbecco’s modified Eagle medium (DMEM) from Gibco by Life Technologies (LifeTech Austria, Vienna, Austria). The growth medium was supplemented with 5% fetal bovine serum (FBS) from Gibco by Life Technologies and 1% penicillin-streptomycin obtained from Sigma-Aldrich (Vienna, Austria). The cells were maintained at 37 °C with 5% CO2 in a humidified incubator, and regular checks for mycoplasma contamination were carried out.
(§3) For experimental purposes, the cells were seeded into 96-well plates at a density of 2 × 10^4 cells/mL, with each well containing 100 µL of the cell suspension. The cells were allowed to adhere for 24 h. Subsequently, they were exposed to 100 µL of the test compounds, which were diluted in DMEM, with concentrations ranging from 2 to 600 µmol/L. The stock solutions of these compounds were prepared in water with 10% (v/v) dimethyl sulfoxide (DMSO) and stored at 4 °C.
(§4) To assess cell viability after 72 h of exposure to the compounds, we employed a 3-(4,5-dimethylthiazol-2-yl)-2,5-diphenyltetrazolium bromide (MTT)-based vitality assay kit (EZ4U, Biomedica, Vienna, Austria). Briefly, we added 20 µL of the EZ4U assay solution to each well and incubated the plates in the dark for 2 h. Subsequently, we measured the absorbance using a microplate reader at 450 nm, with 620 nm as a reference to reduce unspecific background values. For reliability, all experiments were conducted three times with triplicate samples.
(§5) The different mean concentrations for promastigotes (IC50) and macrophages (CC50) were calculated using nonlinear regression. For comparisons between groups, ANOVA analysis of variance was performed followed by Tukey’s test in a statistical program, taking the p-value < 0.05 as the maximum level of statistical significance.

[2] = Cytotoxicity against RAW 264.7 macrophages (MTT); assay type: cell-based, murine; settings: mouse, RAW 264.7 macrophages, pH 7.2, RAW 264.7 cells
Description: as §1, §2, §3, §4, §5

[3] = test system: L. (V.) braziliensis promastigotes; test: Antileishmanial activity on promastigotes (MTT, 72 h); assay type: cell-based, Leishmania (Viannia) braziliensis
Description: Leishmania (Viannia) braziliensis (MHOM/BR/1975/M2903) was utilized in this study. The promastigote forms of these parasites were maintained in vitro in Schneider’s insect medium pH 7.2, supplemented with 20% fetal bovine serum (FBS) and 1% antibiotic solution (100 U/mL penicillin and 100 μg/mL streptomycin) at a temperature of 26 ± 1 °C in a Biochemical Oxygen Demand (BOD) incubator (Eletrolab EL202, São Paulo, Brazil), with regular aeration and weekly subculturing.
(§6) Assessment of antileishmanial activity against promastigote and amastigote axenic forms of parasites followed the method described by Rodrigues et al. and involved the following steps: L. (V.) braziliensis parasites were cultured in 96-well plates at a concentration of 1 × 10^6 parasites per well. Each well contained 100 μL of supplemented Schneider medium. Serial concentrations of the test substances, ranging from 50 to 1.56 μmol/L, were prepared. Reference drugs, meglumine antimoniate (20 to 40,000 μmol/L) and amphotericin B (0.031 to 2 μmol/L) were also prepared. These concentrations were used to assess the effects of the test substances in comparison to reference drugs. The plates were incubated in a BOD incubator at 26 °C for 72 h. After the 72 h incubation period, 10 μL of MTT (5 mg/mL) was added to each well. The plates were then incubated for an additional 4 h. At the end of the 4 h incubation, formazan crystals formed by the reduction of the MTT salt were solubilized by adding 50 μL of a 10% (w/v) sodium dodecyl sulfate (SDS) solution in distilled water. Absorbance was measured using a microplate reader at a wavelength of 540 nm (Biosystems ELx800 model, Curitiba, PR, Brazil). This measurement quantified the metabolic activity of the parasites, which is indicative of their viability and proliferation. Schneider medium containing 0.2% DMSO was used as a negative control in the tests.
as §5

[4] = test system: L. (V.) braziliensis axenic amastigotes; test: Antileishmanial activity on axenic amastigotes (MTT, 72 h); assay type: cell-based, Leishmania (Viannia) braziliensis
Description: In vitro amastigogenesis was performed by transformation from promastigotes at the stationary phase of growth to obtention axenic amastigotes. This process involved altering the culture conditions to Schneider’s medium with a pH of 5.5, supplementing them with 5% FBS, and incubating them at a temperature of 32 °C [17].
as §6

aorta = test: Vasodilator effect on aortic rings (KCl contraction); settings: Cavia porcellus; guinea pig aortic rings
Description: (§7) Guinea pigs of either sex weighing between 250 or 380 g were utilized in this study. The animals were housed in a controlled environment in an air-conditioned room, maintaining a temperature of 22 to 24 °C and a relative humidity of 50% to 60%. A 12 h light–dark cycle was maintained.
(§8) On the day of the experiments, the animals were euthanized via cervical dislocation. The heart, aorta, pulmonary artery, and ileum were surgically removed and immersed in Krebs–Henseleit solution, with the following composition: NaCl 144.9 mM, KCl 4.73 mM, CaCl2 3.2 mM, MgSO4 1.18 mM, NaHCO3 24.9 mM, KH2PO4 1.18 mM, and glucose 10 mM, with the pH maintained at 7.2–7.4. This solution was continuously aerated with a mixture of 95% O2 and 5% CO2.
Papillary muscles were isolated from the right ventricle of the heart and meticulously cleared of Purkinje fibers to prevent spontaneous activity. To ensure adequate oxygen supply, only muscles with a diameter less than 0.87 mm were used. The right atrium was also dissected for assessment of chronotropic activity. […]
(§9) Following a 30 min control period, different concentrations of test compounds were cumulatively added to the bath solution every 45 min until a stable effect was achieved. The responses were recorded using a chart recorder (BD 112 Dual Channel, Kipp &Zonen, PO Box 507, 2624 BC, Delft, Holland) for subsequent evaluation. […]

terminal ileum = test: Spasmolytic effect on terminal ileum (KCl contraction); settings: guinea pig terminal ilea, KCl-induced contraction
Description: as §7, §8
(§10) Papillary muscles were isolated from the right ventricle of the heart and meticulously cleared of Purkinje fibers to prevent spontaneous activity. To ensure adequate oxygen supply, only muscles with a diameter less than 0.87 mm were used. The right atrium was also dissected for assessment of chronotropic activity. Both the aorta and pulmonary artery were cleaned and cut into 5 mm rings, while the ileum was sectioned into pieces measuring 1 to 2 cm.
(§11) One end of the dissected tissues was securely tied with silver wire for attachment to a tissue holder, while the other end was connected to a force transducer (Transbridge™, 4-Channel Transducer Amplifier, World Precision Instruments, Sarasota, FL, USA). For contractile measurements, the terminal ileum was stimulated with 60 mM KCl, and the pulmonary artery and aorta rings were exposed to a 90 mM KCl solution. Papillary muscles were electrically stimulated using an Anapulse Stimulator Model 301-T and an Isolation Unit Model 305-1 (WPI, Hamden, CT, USA) with rectangular pulses of 3 ms duration at a frequency of 1 Hz. The amplitude of the stimulation pulse was maintained at 10% above the threshold level. To optimize contractility, a constant resting tension was applied throughout the experiment: 3.9 mN for papillary muscle, 4.9 mN for terminal ileum, 10.4 mN for the right atrium, and 19.6 mN for aorta and pulmonary artery rings.
(§12) Following a 30 min control period, different concentrations of test compounds were cumulatively added to the bath solution every 45 min until a stable effect was achieved. The responses were recorded using a chart recorder (BD 112 Dual Channel, Kipp &Zonen, PO Box 507, 2624 BC, Delft, Holland) for subsequent evaluation. Stock concentrations of the test compounds were prepared using DMSO. To account for any potential DMSO effect, control experiments were conducted with the solvent alone, and the observed effects were subtracted from the responses elicited by the test compounds.

pulmonary artery = test: Vasodilator effect on pulmonary artery rings (KCl contraction); settings: Cavia porcellus; guinea pig pulmonary artery rings
Description: as §7, §8, §10
One end of the dissected tissues was securely tied with silver wire for attachment to a tissue holder, while the other end was connected to a force transducer (Transbridge™, 4-Channel Transducer Amplifier, World Precision Instruments, Sarasota, FL, USA). For contractile measurements, the terminal ileum was stimulated with 60 mM KCl, and the pulmonary artery and aorta rings were exposed to a 90 mM KCl solution. […]
as §9

right atrium = test: Chronotropic effect on isolated right atrium; parameters: species or system guinea pig; settings: Cavia porcellus; isolated guinea pig right atrium, 3 to 100 µmol/L; read-out: EC50 reduction of heart rate activity
Description: as §7, §8, §10, §11, §12

Molecule | EC50 [1] | CC50 (RAW 264.7 macrophages) | CC50 at 72 h [2] | IC50 ([3]; Leishmania braziliensis) | other results
C[C@@H]1[C@H](O)[C@@H](C)/C=C/C=C/C=C/C=C/C=C/C=C/C=C/[C@H](O[C@@H]2O[C@H](C)[C@@H](O)[C@H](N)[C@@H]2O)C[C@@H]2O[C@](O)(C[C@@H](O)C[C@@H](O)[C@H](O)CC[C@@H](O)C[C@@H](O)CC(=O)O[C@H]1C)C[C@H](O)[C@H]2C(=O)O [Amphotericin B, reference compound] | 0.3 ± 0.02 µM | 0.5 ± 0.1 µM | 0.55 µM | 0.3 ± 0.01 µM | EC50 ([1]; Leishmania braziliensis, RAW264.7, 72 h): 0.35 µM; EC50 ([4]; Leishmania braziliensis): 0.4 µM
O=C(/N=C(/NCc1ccccc1)Nc1ccccc1Br)c1ccccc1 [LQOF-G35] | – | – | 232 ± 3.5 µM | 25.9 ± 1.6 µM | –
O=C(/N=C(/NCc1ccccc1)Nc1cccc(Br)c1)c1ccccc1 [LQOF-G36] | – | – | – | > 50 µM | EC50 (aorta): 29 µM; spasmolytic effect / contraction force in the terminal ileum (terminal ileum): decrease in contraction force; also recorded: spasmolytic effect; EC50 (pulmonary artery): 23.5 µM; EC50 (right atrium): 38 µM
Meglumine antimoniate [Meglumine At, reference compound] | 452 ± 14.3 µM | 846 ± 13 µM | – | – | EC50 ([1]; listed as Meglumine antimoniate): 452 µM; IC50 [3]: 19300 µM; EC50 [4]: 2170 µM
